Where a name gives a salt, the structure may show the parent alone. Read-outs that look alike come from different tables or passages of the source.
Tests used:
hKAT-II = target: T1, hKAT-II (Homo sapiens, UniProt Q8N5Z0); test: Coupled fluorescence in vitro inhibition assay of hKAT-II; type: biochemical; conditions: 20 nM hKAT-II; for IC50: 30 min pre-incubation; for Inhibitory Activity [%I ± SEM] c = 1 µM: 30 min pre-incubation with enzyme, mean ± SEM
T1 construct: hexahistidine tag (N); made in house; host or cells: E. coli BL21(DE3)-RIL
Experimental: The inhibitory activity of amino ketones 11 and 12 was evaluated using a fluorimetric in vitro assay. The activity was determined as the percentage of inhibition (%I) at a concentration of 1 µmol/L and also as IC50 values (Table 1). The observed inhibitory activity confirmed the validity of the computational model and was suitable to conduct a synthesis-directed SAR study around the predicted heterocyclic α-amino ketone structure.
The nucleotide sequence encoding hKAT-II gene was constructed by Invitrogen, Thermo Fisher Scientific. The hKAT-II gene, optimized for heterologous expression in E. coli, was cloned into a pET15b vector using NdeI-XhoI. The hKAT-II protein, carrying an N-terminal hexahistidine tag, was produced in E.coli BL21(DE3)-RIL cells for 4 h at 37 °C. The bacterial cells were then harvested and disintegrated using One-Shot. […] (25.000× g, 30 min) centrifugation cleared cell lysate containing hKAT-II was loaded on the top of a HisTrap Fast Flow column (Cytiva) equilibrated in loading buffer (40 mM Tris, pH 8; 1000 mM NaCl, 40 µM PLP, 5 mM MgCl2, 20 mM imidazole). Following elution of the bound proteins by the loading buffer containing 600 mM imidazole, purified hKAT-II was dialyzed into a storage buffer (20 mM Hepes pH 7.5; 50 mM NaCl, 70 µM PLP, 10% glycerol), concentrated to 1.0–1.5 mg/mL, aliquoted, and stored at −80 °C.
hKAT-II activity was measured using a fluorescence assay utilizing L-α-aminoadipic acid (AAD) and α-ketoglutarate as the substrates as previously described. The assay medium (100 µL) consisted of 0.75 µM of hKAT-II, 0.3 mM of AAD, 50 µM α-ketoglutarate, 3 mM NAD^+, 88 µg/mL of glutamic dehydrogenase, and 5 µM pyridoxal phosphate (PLP) in a 0.1 M phosphate buffer pH 7.5. The activity of the enzyme was assessed on a Spark multiple mode reader (Tecan Group Ltd., Männedorf, Switzerland) with an excitation wavelength of 340 nm and emission wavelength of 390 nm at 37 °C. The plate was shaken for 20 s before reading. The kinetic interval was set at 30 s between each reading, and data were collected for 30 min. The activity of the enzyme was assayed in pentaplicate in each measurement (n = 3). Kinetic data were then collected over a period of 30 min, and the linear part of the initial velocity was used to calculate the enzyme activity expressed as the slope of the linearized curve via the linear regression function (Excel, Microsoft, USA).
The inhibitory activity of the tested compounds was determined via 30 min pre-incubation with the enzyme at various concentrations of the inhibitor at room temperature in a 0.1 M phosphate buffer pH 7.5 with 5 µM PLP. The enzyme reaction was initiated by the addition of a substrate and cofactors. The final mixture contained 20 nM of hKAT-II, 0.3 mM of AAD, 50 µM α-ketoglutarate, 3 mM NAD^+, and 88 µg/mL of glutamic dehydrogenase. Kinetic data were collected over a period of 30 min, and the slope of the linearized curve was calculated as above. The inhibitory activity in %I at a given concentration was calculated for novel compounds using the following equation:(1) Inhibition [%I]=(V0− Vi/V0)×100, where V0 and Vi are the activity of the enzyme in the absence and presence of the inhibitor, respectively. All the data were obtained in pentaplicate for each measurement (n = 3). Alternatively, the IC50 values for selected novel compounds were assessed. GraphPad Prism 8 software (San Diego, USA) was used for the IC50 value calculation using non-linear regression (four parameters). […]

[1] = non-linear regression (four parameters), read-out: IC50 ± SEM

T1 sequence (Q8N5Z0 30-425): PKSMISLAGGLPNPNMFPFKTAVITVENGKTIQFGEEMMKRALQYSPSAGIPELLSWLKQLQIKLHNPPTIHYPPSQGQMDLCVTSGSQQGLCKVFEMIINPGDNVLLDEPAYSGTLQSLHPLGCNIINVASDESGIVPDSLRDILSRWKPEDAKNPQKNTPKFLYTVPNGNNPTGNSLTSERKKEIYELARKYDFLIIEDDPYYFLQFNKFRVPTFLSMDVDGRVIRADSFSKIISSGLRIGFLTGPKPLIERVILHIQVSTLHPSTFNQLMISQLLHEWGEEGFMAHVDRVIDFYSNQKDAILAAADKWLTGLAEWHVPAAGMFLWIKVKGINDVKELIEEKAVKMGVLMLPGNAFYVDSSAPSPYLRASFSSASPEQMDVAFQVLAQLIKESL

C[C@H](N)C(=O)c1cn(-c2cccnc2)nn1 (as salt: hydrochloride) [Compound 26l]
melting point: 140 to 143 °C (dec.)

N[C@H]1Cc2ccccc2N(O)C1=O [Compound 3, PF-04859989, reference compound]
IC50 (hKAT-II; assay validation, read-out: IC50 of the reference inhibitor): 0.028 ± 0.005 µM

C[C@H](N)C(=O)c1ncc(-c2ccccc2)s1 [Compound 11, 2-alaninoyl-5-phenylthiazole]
IC50 (hKAT-II; [1]): 1.62 ± 1.43 µM
Inhibitory Activity [%I ± SEM] c = 1 µM (hKAT-II): 41.41 ± 4.15 %I
melting point: > 168 °C (dec.)

C[C@H](N)C(=O)c1cn(-c2ccccc2)nn1 [Compound 12, 4-alaninoyl-1-phenyl-1H-1,2,3-triazole]
IC50 (hKAT-II; [1]): 3.21 ± 0.26 µM
Inhibitory Activity [%I ± SEM] c = 1 µM (hKAT-II): 43.19 ± 2.30 %I
melting point: > 178 °C (dec.)

CC(C)[C@H](N)C(=O)c1cn(-c2ccccc2)nn1.Cl [Compound 21a]
Inhibitory Activity [%I ± SEM] c = 1 µM (hKAT-II): 10.32 ± 4.81 %I
melting point: > 182 °C (dec.)

N[C@@H](Cc1ccccc1)C(=O)c1cn(-c2ccccc2)nn1 [Compound 21b]
Inhibitory Activity [%I ± SEM] c = 1 µM (hKAT-II): 14.52 ± 3.71 %I
melting point: > 174 °C (dec.)

Cl.N[C@@H](CCc1ccccc1)C(=O)c1cn(-c2ccccc2)nn1 [Compound 21c]
Inhibitory Activity [%I ± SEM] c = 1 µM (hKAT-II): 16.50 ± 3.71 %I
melting point: > 175 °C (dec.)

CCCC[C@H](N)C(=O)c1cn(-c2ccccc2)nn1.Cl [Compound 21d]
Inhibitory Activity [%I ± SEM] c = 1 µM (hKAT-II): 13.46 ± 5.46 %I
melting point: > 173 °C (dec.)

CC[C@H](N)C(=O)c1cn(-c2ccccc2)nn1.Cl [Compound 21e]
Inhibitory Activity [%I ± SEM] c = 1 µM (hKAT-II): 21.82 ± 4.80 %I

N[C@H](C(=O)c1cn(-c2ccccc2)nn1)C1CC1 [Compound 21f]
Inhibitory Activity [%I ± SEM] c = 1 µM (hKAT-II): 7.44 ± 3.75 %I
melting point: > 183 °C (dec.)

CC(C)[C@H](N)C(=O)c1ncc(-c2ccccc2)s1 [Compound 25a]
Inhibitory Activity [%I ± SEM] c = 1 µM (hKAT-II): 31.24 ± 3.64 %I
melting point: > 170 °C (dec.)

N[C@@H](Cc1ccccc1)C(=O)c1ncc(-c2ccccc2)s1 [Compound 25b]
Inhibitory Activity [%I ± SEM] c = 1 µM (hKAT-II): 7.22 ± 2.70 %I
melting point: > 175 °C (dec.)

N[C@@H](CCc1ccccc1)C(=O)c1ncc(-c2ccccc2)s1 [Compound 25c]
Inhibitory Activity [%I ± SEM] c = 1 µM (hKAT-II): 31.32 ± 0.88 %I
melting point: > 135 °C (dec.)

CCCC[C@H](N)C(=O)c1ncc(-c2ccccc2)s1 [Compound 25d]
Inhibitory Activity [%I ± SEM] c = 1 µM (hKAT-II): 37.22 ± 2.53 %I
melting point: 124 to 127 °C

CC[C@H](N)C(=O)c1ncc(-c2ccccc2)s1 [Compound 25e]
Inhibitory Activity [%I ± SEM] c = 1 µM (hKAT-II): 44.18 ± 3.42 %I
melting point: > 180 °C (dec.)

N[C@H](C(=O)c1ncc(-c2ccccc2)s1)C1CC1 [Compound 25f]
Inhibitory Activity [%I ± SEM] c = 1 µM (hKAT-II): 6.12 ± 2.66 %I
melting point: > 165 °C (dec.)

COc1ccc(-n2cc(C(=O)[C@H](C)N)nn2)cc1 [Compound 26a]
Inhibitory Activity [%I ± SEM] c = 1 µM (hKAT-II): 38.50 ± 2.21 %I
melting point: > 180 °C (dec.)

COc1cccc(-n2cc(C(=O)[C@H](C)N)nn2)c1 [Compound 26b]
Inhibitory Activity [%I ± SEM] c = 1 µM (hKAT-II): 18.20 ± 2.27 %I
melting point: > 171 °C (dec.)

COc1ccccc1-n1cc(C(=O)[C@H](C)N)nn1 [Compound 26c]
Inhibitory Activity [%I ± SEM] c = 1 µM (hKAT-II): 23.41 ± 3.97 %I
melting point: > 168 °C (dec.)

C[C@H](N)C(=O)c1cn(-c2ccc(C(C)(C)C)cc2)nn1 [Compound 26d]
Inhibitory Activity [%I ± SEM] c = 1 µM (hKAT-II): 0.98 ± 1.98 %I
melting point: > 181 °C (dec.)

Cc1ccc(-n2cc(C(=O)[C@H](C)N)nn2)cc1 [Compound 26e]
Inhibitory Activity [%I ± SEM] c = 1 µM (hKAT-II): 18.56 ± 2.33 %I
melting point: > 184 °C (dec.)

Cc1ccc(-n2cc(C(=O)[C@H](C)N)nn2)cc1C [Compound 26f]
Inhibitory Activity [%I ± SEM] c = 1 µM (hKAT-II): 9.10 ± 2.07 %I
melting point: > 170 °C (dec.)

Cc1ccc(-n2cc(C(=O)[C@H](C)N)nn2)c(C)c1 [Compound 26g]
Inhibitory Activity [%I ± SEM] c = 1 µM (hKAT-II): 41.60 ± 6.39 %I
melting point: > 175 °C (dec.)

Cc1cccc(C)c1-n1cc(C(=O)[C@H](C)N)nn1 [Compound 26h]
Inhibitory Activity [%I ± SEM] c = 1 µM (hKAT-II): 25.38 ± 2.22 %I
melting point: > 176 °C (dec.)

C[C@H](N)C(=O)c1cn(-c2cccc3ccccc23)nn1 [Compound 26i]
Inhibitory Activity [%I ± SEM] c = 1 µM (hKAT-II): 4.32 ± 1.32 %I
melting point: > 172 °C (dec.)

C[C@H](N)C(=O)c1cn(-c2ccc3ccccc3c2)nn1 [Compound 26j]
Inhibitory Activity [%I ± SEM] c = 1 µM (hKAT-II): 27.81 ± 3.33 %I
melting point: > 182 °C (dec.)

C[C@H](N)C(=O)c1cn(-c2ccccn2)nn1.Cl [Compound 26k]
Inhibitory Activity [%I ± SEM] c = 1 µM (hKAT-II): 20.73 ± 1.83 %I
melting point: > 198 °C (dec.)

C[C@H](N)C(=O)c1cn(-c2cccnc2)nn1 [Compound 26l]
Inhibitory Activity [%I ± SEM] c = 1 µM (hKAT-II): 23.63 ± 2.30 %I

C[C@H](N)C(=O)c1cn(-c2ccncc2)nn1.Cl.Cl [Compound 26m]
Inhibitory Activity [%I ± SEM] c = 1 µM (hKAT-II): 33.48 ± 4.88 %I
melting point: > 183 °C (dec.)

C[C@H](N)C(=O)c1cn(-c2ccc(F)cc2)nn1.Cl [Compound 26n]
Inhibitory Activity [%I ± SEM] c = 1 µM (hKAT-II): 41.77 ± 3.01 %I
melting point: > 183 °C (dec.)

C[C@H](N)C(=O)c1cn(-c2ccc(C(F)(F)F)cc2)nn1 [Compound 26o]
Inhibitory Activity [%I ± SEM] c = 1 µM (hKAT-II): 9.70 ± 1.67 %I

C[C@H](N)C(=O)c1cn(-c2cccc([N+](=O)[O-])c2)nn1.Cl [Compound 26p]
Inhibitory Activity [%I ± SEM] c = 1 µM (hKAT-II): 41.43 ± 2.67 %I
melting point: > 183 °C (dec.)

C[C@H](N)C(=O)c1cn(-c2ccc([N+](=O)[O-])cc2)nn1.Cl [Compound 26q]
Inhibitory Activity [%I ± SEM] c = 1 µM (hKAT-II): 41.73 ± 2.66 %I
melting point: > 191 °C (dec.)

C[C@H](N)C(=O)c1cn(-c2ccc(Cl)cc2)nn1.Cl [Compound 26r]
Inhibitory Activity [%I ± SEM] c = 1 µM (hKAT-II): 23.86 ± 2.95 %I
melting point: > 177 °C (dec.)

C[C@H](N)C(=O)c1cn(-c2cccc(Cl)c2)nn1 [Compound 26s]
Inhibitory Activity [%I ± SEM] c = 1 µM (hKAT-II): 20.63 ± 3.78 %I
melting point: > 171 °C (dec.)

C[C@H](N)C(=O)c1cn(-c2ccccc2Cl)nn1.Cl [Compound 26t]
Inhibitory Activity [%I ± SEM] c = 1 µM (hKAT-II): 35.52 ± 3.63 %I
melting point: 138 to 169 °C (dec.)

C[C@H](N)C(=O)c1cn(-c2ccc(Cl)c(Cl)c2)nn1 [Compound 26u]
Inhibitory Activity [%I ± SEM] c = 1 µM (hKAT-II): 19.33 ± 1.06 %I
melting point: > 163 °C (dec.)

C[C@H](N)C(=O)c1cn(-c2ccc(F)c(Cl)c2)nn1 [Compound 26v]
Inhibitory Activity [%I ± SEM] c = 1 µM (hKAT-II): 23.62 ± 4.30 %I

C[C@H](N)C(=O)c1cn(Cc2ccccc2)nn1.Cl [Compound 28a]
Inhibitory Activity [%I ± SEM] c = 1 µM (hKAT-II): 14.54 ± 3.19 %I
melting point: > 182 °C (dec.)

C[C@H](N)C(=O)c1cn(CCc2ccccc2)nn1.Cl [Compound 28b]
Inhibitory Activity [%I ± SEM] c = 1 µM (hKAT-II): 11.84 ± 5.76 %I
melting point: > 172 °C (dec.)

C[C@H](N)C(=O)c1cn(-c2ccc(F)cc2Cl)nn1 [Compound 32a]
Inhibitory Activity [%I ± SEM] c = 1 µM (hKAT-II): 25.30 ± 1.10 %I
melting point: > 158 °C (dec.)

CC[C@H](N)C(=O)c1cn(-c2ccc(F)cc2Cl)nn1 [Compound 32b]
Inhibitory Activity [%I ± SEM] c = 1 µM (hKAT-II): 21.25 ± 0.67 %I
melting point: > 196 °C (dec.)

CC[C@H](N)C(=O)c1cn(-c2ccc(F)cc2)nn1.Cl [Compound 32c]
Inhibitory Activity [%I ± SEM] c = 1 µM (hKAT-II): 35.94 ± 2.87 %I
melting point: > 182 °C (dec.)

C[C@H](N)C(=O)c1ncc(-c2ccc(F)cc2)s1 [Compound 49a, 2-alaninoyl-5-(4-fluorophenyl)thiazole]
IC50 (hKAT-II; [1]): 0.097 ± 0.014 µM
Inhibitory Activity [%I ± SEM] c = 1 µM (hKAT-II): 61.54 ± 7.16 %I

Reference: article PMC8708382, “Heterocyclic Cathinones as Inhibitors of Kynurenine Aminotransferase II—Design, Synthesis, and Evaluation” (Pharmaceuticals, 2021)
